Results from US7132438B2, “Benzimidazole derivatives” (priority 2001, dated 2006).
Where two headings read alike, the source gives them in different places.

Columns and labels:
IRAK-1 = molecular target: T1, IRAK-1 (Homo sapiens, UniProt P51617); experiment: Enzymatic inhibition assay, IRAK-1 kinase activity (chemiluminescent ELISA); assay type: biochemical
T1 construct: Recombinant, full-length IRAK-1 or IRAK-4 enzyme (baculovirus expression system) was added; Flag (N); made in house
Method: Enzymatic inhibition assay.
(§1) 96-well polystyrene microtiter plates were coated with neutravidin for IRAK-1 or streptavidin for IRAK-4 ([…] in PBS, overnight at 4° C.). The coating solution was removed and in 80 μL/well a kinase reaction mixture was added (for IRAK-1: 20 mM Tris-HCl, pH 7.5, 10 mM MgCl2, 2 mM EGTA, 1 mM NaF, 0.5 mM benzamidine, 1 mM DTT, 3 μM ATP, […] of biotinylated substrate peptide bio-[…], sequence derived from IRAK-1; for IRAK-4: 20 mM Tris-HCl, pH 7.5, 10 mM MgCl2, 2 mM EGTA, 1 mM NaF, 0.5 mM benzamidine, 1 mM DTT, 10% glycerol, 10 μM ATP, […] of biotinylated substrate peptide bio-[…], sequence derived from GFAP).
(§2) At 10 μL/well in DMSO test compounds were added covering a final concentration range from 1 nM to […]. Recombinant, full-length IRAK-1 or IRAK-4 enzyme (baculovirus expression system) was added in 10 μL buffer containing Tris-HCl pH 7.5 20 mM, EGTA 2 mM, benzamidine 0.5 mM, DTT 1 mM, MgCl2 10 mM and glycerol 10% (IRAK-4 only) to initiate the kinase reaction. The reaction mixture was incubated at room temperature for 60 min on a shaker. During this incubation the substrate peptide is being phosphorylated by the kinase and gets captured onto the surface of the wells by neutravidin or streptavidin, respectively. The plate was washed 3× with 150 μL distilled water to terminate the reaction and remove components of the reaction mixture. A conventional chemiluminescent ELISA detection technique was initiated by adding 100 μL/well primary antibody (monoclonal antibody YC10, generated to recognize the phosphorylated epitope in the substrate peptide; used at 1:20,000 dilution for IRAK-1 and 1:10,000 dilution for IRAK-4) premixed with horseradish peroxidase (HRP) conjugated anti-mouse secondary antibody (commercially available from several sources; used at 1:10,000 dilution) in PBS containing 2% BSA. The solution was incubated at room temperature for 40 min on a shaker, then washed 3× with 150 μL of water. 100 μL/well 10× diluted SuperSignal HRP substrate (from Pierce) was added and after 5 min incubation the chemiluminescent signal was captured by a Labsystems LuminoSkan luminometer.

IRAK-4 = molecular target: T2, IRAK-4 (Homo sapiens, UniProt Q9NWZ3); experiment: Enzymatic inhibition assay, IRAK-4 kinase activity (chemiluminescent ELISA); assay type: biochemical
T2 construct: Recombinant, full-length IRAK-1 or IRAK-4 enzyme (baculovirus expression system) was added; His (N); made in house
T2 sequence (Q9NWZ3 1-460): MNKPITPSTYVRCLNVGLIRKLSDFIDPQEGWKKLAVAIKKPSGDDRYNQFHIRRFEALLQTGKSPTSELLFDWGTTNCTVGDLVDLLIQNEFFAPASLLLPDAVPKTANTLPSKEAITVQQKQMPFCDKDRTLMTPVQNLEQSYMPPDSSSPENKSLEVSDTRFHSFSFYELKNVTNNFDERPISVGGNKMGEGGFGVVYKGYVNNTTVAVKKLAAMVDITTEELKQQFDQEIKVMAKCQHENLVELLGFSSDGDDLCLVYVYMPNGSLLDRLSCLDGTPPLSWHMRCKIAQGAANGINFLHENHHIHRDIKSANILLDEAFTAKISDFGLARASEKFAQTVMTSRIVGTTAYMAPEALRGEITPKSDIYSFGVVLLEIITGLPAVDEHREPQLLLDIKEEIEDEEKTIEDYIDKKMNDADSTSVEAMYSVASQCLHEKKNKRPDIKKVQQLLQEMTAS
Method: Enzymatic inhibition assay. This example provides a method that is useful for evaluating test compounds for inhibition of IRAK-1 or IRAK-4 kinase activity.
as §1
as §2, with “luminometer. The point of 50% inhibition of IRAK-1 or IRAK-4 enzyme activity (IC50) was determined (see Table 1).” for “luminometer.”

[1] = recombinant full-length IRAK-1, 3 μM ATP, 60 min room temperature, read-out: IC50 values (μM) IRAK-1
[2] = recombinant full-length IRAK-4, 10 μM ATP, 60 min room temperature, read-out: IC50 values (μM) IRAK-4

T1 sequence (P51617 whole entry): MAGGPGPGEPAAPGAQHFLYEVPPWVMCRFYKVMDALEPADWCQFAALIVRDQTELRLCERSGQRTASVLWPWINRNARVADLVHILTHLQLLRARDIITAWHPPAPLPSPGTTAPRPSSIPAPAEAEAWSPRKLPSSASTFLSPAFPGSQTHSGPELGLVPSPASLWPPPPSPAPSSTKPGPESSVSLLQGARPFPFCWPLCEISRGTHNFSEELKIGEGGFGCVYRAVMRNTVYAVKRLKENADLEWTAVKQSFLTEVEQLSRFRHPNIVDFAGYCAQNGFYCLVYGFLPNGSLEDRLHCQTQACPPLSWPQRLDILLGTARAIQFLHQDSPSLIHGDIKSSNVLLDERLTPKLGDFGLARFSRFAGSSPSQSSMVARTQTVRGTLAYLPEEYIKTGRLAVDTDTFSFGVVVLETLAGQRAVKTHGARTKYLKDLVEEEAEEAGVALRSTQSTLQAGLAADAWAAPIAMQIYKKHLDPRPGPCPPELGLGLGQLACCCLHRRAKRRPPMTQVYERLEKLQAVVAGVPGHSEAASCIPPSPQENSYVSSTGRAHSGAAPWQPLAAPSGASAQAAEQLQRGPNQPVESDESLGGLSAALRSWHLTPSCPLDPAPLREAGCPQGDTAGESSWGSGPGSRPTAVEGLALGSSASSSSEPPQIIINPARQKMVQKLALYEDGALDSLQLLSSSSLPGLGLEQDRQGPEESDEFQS

`O=C(Nc1nc2ccccc2[nH]1)c1cccc([N+](=O)[O-])c1` [Compound 1, 3-nitro-N-(1H-benzoimidazol-2-yl)-benzamide] was tested, and the IC50 (IRAK-1; [1]) was < 10 µM and the IC50 (IRAK-4) was < 10 µM.

`Cc1cc2nc(NC(=O)c3cccc([N+](=O)[O-])c3)[nH]c2cc1C` [Compound 2, 3-nitro-N-(5,6-dimethyl-1H-benzoimidazol-2-yl)-benzamide] was tested, and the IC50 (IRAK-1; [1]) was 10 to 30 µM and the IC50 (IRAK-4) was < 10 µM.

With `O=C(Nc1nc2ccccc2n1CCN1CCOCC1)c1cccc([N+](=O)[O-])c1` [Compound 3, 3-nitro-N-(1-(2-morpholin-4-yl-ethyl)-1H-benzoimidazol-2-yl)-benzamide] the IC50 (IRAK-1; [1]) was < 10 µM and the IC50 (IRAK-4) was < 10 µM.

`O=C(Nc1nc2cc(F)c(F)cc2n1CCN1CCOCC1)c1cccc([N+](=O)[O-])c1` [Compound 4, 3-nitro-N-(1-(2-morpholin-4-yl-ethyl)-5,6-difluoro-1H-benzoimidazol-2-yl)-benzamide] was tested, and the IC50 (IRAK-1) was < 10 µM and the IC50 (IRAK-4; [2]) was < 10 µM.

With `COC(=O)CCCn1c(NC(=O)c2cccc([N+](=O)[O-])c2)nc2ccccc21` [Compound 5, 3-nitro-N-(1-(3-carboxymethylpropyl)-1H-benzoimidazol-2-yl)-benzamide] the IC50 (IRAK-1) was < 10 µM and the IC50 (IRAK-4; [2]) was < 10 µM.

In the case of `CCOC(=O)Cn1c(NC(=O)c2cccc([N+](=O)[O-])c2)nc2cc(F)c(F)cc21` [Compound 6, 3-nitro-N-(1-(ethylacet-2-yl)-5,6-difluoro-1H-benzoimidazol-2-yl)-benzamide], the IC50 (IRAK-1) is reported as 10 to 30 µM and the IC50 (IRAK-4; [2]) is reported as < 10 µM.

For `COC(=O)c1ccc2c(c1)nc(NC(=O)c1cccc([N+](=O)[O-])c1)n2CCO` [Compound 7a, 3-nitro-N-(1-hydroxyethyl-5-carboxymethyl-1H-benzoimidazol-2-yl)-benzamide], the IC50 (IRAK-1) was < 10 µM and the IC50 (IRAK-4; [2]) was < 10 µM.

For `CCn1c(NC(=O)c2ccc(OC)cc2)nc2ccccc21` [Compound 8, 4-methoxy-N-(1-ethyl-1H-benzoimidazol-2-yl)-benzamide], the IC50 (IRAK-1) was 10 to 30 µM and the IC50 (IRAK-4; [2]) was 10 to 30 µM.

With `O=C(Nc1nc2ccccc2n1CCO)c1cccc(Cl)c1` [Compound 9, 3-chloro-N-(1-hydroxyethyl-1H-benzoimidazol-2-yl)-benzamide] the IC50 (IRAK-1) was < 10 µM and the IC50 (IRAK-4; [2]) was < 10 µM.

For `O=C(Nc1nc2ccccc2n1CCO)c1ccc(Cl)c(Cl)c1` [Compound 10, 3,4-dichloro-N-(1-hydroxyethyl-1H-benzoimidazol-2-yl)-benzamide], the IC50 (IRAK-1) was 10 to 30 µM and the IC50 (IRAK-4; [2]) was < 10 µM.

`COC(=O)c1cccc(C(=O)Nc2nc3ccccc3n2CCN2CCOCC2)c1` [Compound 11, 3-carboxymethyl-N-(1-(2-morpholin-4-yl-ethyl)-1H-benzoimidazol-2-yl)-benzamide] was tested, and the IC50 (IRAK-1) was < 10 µM and the IC50 (IRAK-4; [2]) was < 10 µM.

With `CS(=O)(=O)c1cccc(C(=O)Nc2nc3ccccc3n2CCN2CCOCC2)c1` [Compound 12, 3-methanesulfonyl-N-(1-(2-morpholin-4-yl-ethyl)-1H-benzoimidazol-2-yl)-benzamide] the IC50 (IRAK-1) was < 10 µM and the IC50 (IRAK-4; [2]) was < 10 µM.

With `O=C(Nc1nc2ccccc2n1CCN1CCOCC1)c1ccc([N+](=O)[O-])o1` [Compound 13, 5-nitro-N-(1-(2-morpholin-4-yl-ethyl)-1H-benzoimidazol-2-yl)-2-furamide] the IC50 (IRAK-1) was < 10 µM and the IC50 (IRAK-4; [2]) was < 10 µM.

`O=C(Nc1nc2ccccc2n1CCN1CCOCC1)c1cccs1` [Compound 14, N-(1-(2-morpholin-4-yl-ethyl)-1H-benzoimidazol-2-yl)-2-thiophenecarboxamide] showed an IC50 (IRAK-1) of 10 to 30 µM and an IC50 (IRAK-4; [2]) of 10 to 30 µM.

For `CC(C)(C)C(=O)Oc1ccc2c(c1)nc(NC(=O)c1cccc([N+](=O)[O-])c1)n2CCCO` [Compound 15a, 3-nitro-N-(1-hydroxypropyl-5-(2′,2′-dimethylpropionyl)-1H-benzoimidazol-2-yl)-benzamide], the IC50 (IRAK-4) was < 10 µM.

In the case of `O=C(Nc1nc2cc(F)ccc2n1[C@H]1CC[C@H](O)CC1)c1cccc([N+](=O)[O-])c1` [Compound 16, 3-nitro-N-(1-(trans-4-cyclohexanol-1-yl)-5-fluoro-1H-benzoimidazol-2-yl)-benzamide], the IC50 (IRAK-1; [1]) is reported as < 10 µM and the IC50 (IRAK-4; [2]) is reported as < 10 µM.

`O=[N+]([O-])c1cccc(CNc2nc3ccccc3[nH]2)c1` [Compound 17] showed an IC50 (IRAK-1; [1]) of 10 to 30 µM and an IC50 (IRAK-4; [2]) of 10 to 30 µM.
